IC50 data for 21 molecules are collected here from patent US20130217664A1, “NOVEL COMPOUNDS USEFUL FOR THE TREATMENT OF DEGENERATIVE AND INFLAMMATORY DISEASES” (priority 2012, published 2013).

Common to all, as to format: biochemical
One assay deals with T1, human JAK1 (Homo sapiens, UniProt P23458).
T1 construct: catalytic domain, amino acids 866-1154; catalog number PV4774; purchased Invitrogen PV4774
The assay can be described thus: JAK1 inhibition assay (polyGT substrate / Ulight-JAK1 peptide). The note with it: recombinant human JAK1 catalytic domain; polyGT or Ulight-JAK1 peptide assay. The method, boiled down: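 Two formats. PolyGT radiometric: 45 min at 30 °C, stopped with phosphoric acid, counted as cpm. Ulight-JAK1 peptide: 60 min at room temperature, stopped with Eu-anti-phosphotyrosine/EDTA, read as RFU. Percent inhibition normalised to vehicle and 10 μM staurosporine.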

For a further assay, the target named is T2, human JAK2 (Homo sapiens, UniProt O60674).
T2 construct: catalytic domain (amino acids 808-1132; catalog number PV4210); GST; purchased Invitrogen PV4210
T2 sequence (O60674 808-1132): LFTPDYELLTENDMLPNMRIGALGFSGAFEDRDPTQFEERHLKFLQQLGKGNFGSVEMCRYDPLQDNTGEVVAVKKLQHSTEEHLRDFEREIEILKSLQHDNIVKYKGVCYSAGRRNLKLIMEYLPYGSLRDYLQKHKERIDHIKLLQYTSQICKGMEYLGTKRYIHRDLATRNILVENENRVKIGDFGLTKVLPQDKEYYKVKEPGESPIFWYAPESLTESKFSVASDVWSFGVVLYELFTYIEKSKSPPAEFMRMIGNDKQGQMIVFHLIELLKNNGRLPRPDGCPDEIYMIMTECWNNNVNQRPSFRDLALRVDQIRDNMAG
The assay can be described thus: JAK2 inhibition assay (polyGT substrate / Ulight-JAK1 peptide). Conditions: recombinant human JAK2 catalytic domain; polyGT or Ulight-JAK1 peptide assay. The method, boiled down: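 Radiometric: 0.025 mU JAK2 with 2.5 μg polyGT, 1 μM ATP plus ^33P-ATP in MOPS pH 7.5 buffer, 1% DMSO, 90 min at 30° C.; filter counting. Alternative TR-FRET format with Ulight-JAK1 peptide, 60 min at room temperature, Eu-anti-phosphotyrosine detection.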

The next assay has as its target T3, human JAK3 (Homo sapiens, UniProt P52333).
T3 construct: catalytic domain (amino acids 781-1124; catalog number PV3855); purchased Invitrogen PV3855
The assay can be described thus: JAK3 inhibition assay. Conditions: recombinant human JAK3 catalytic domain; polyGT substrate. The method, boiled down:
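Radiometric kinase assay: 0.5 ng JAK3 with 2.5 μg polyGT in Tris pH 7.5/MgCl2 buffer, 1 μM ATP plus 0.25 μCi 33P-γ-ATP, 1% DMSO, 45 min at 30 °C, stopped with phosphoric acid.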

Another assay has as its target T4, human TYK2 (Homo sapiens, UniProt P29597).
T4 construct: catalytic domain (amino acids 871-1187; catalog number 08-147); purchased Carna Biosciences 08-147
T4 sequence (P29597 871-1187): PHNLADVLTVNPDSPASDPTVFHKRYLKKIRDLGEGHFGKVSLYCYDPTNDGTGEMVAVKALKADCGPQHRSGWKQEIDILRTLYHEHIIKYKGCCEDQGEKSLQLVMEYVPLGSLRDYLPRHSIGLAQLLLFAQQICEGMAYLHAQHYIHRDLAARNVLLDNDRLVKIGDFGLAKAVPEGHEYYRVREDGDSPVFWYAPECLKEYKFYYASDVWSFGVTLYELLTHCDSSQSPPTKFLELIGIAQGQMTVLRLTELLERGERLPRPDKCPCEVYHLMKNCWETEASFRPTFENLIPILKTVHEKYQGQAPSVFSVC
In words: TYK2 inhibition assay. Conditions: recombinant human TYK2 catalytic domain, polyGT substrate. The method, boiled down:
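Radiometric kinase reaction run 90 min at 30 °C, stopped with phosphoric acid, washed and scintillation-counted.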

T3 sequence (P52333 781-1124): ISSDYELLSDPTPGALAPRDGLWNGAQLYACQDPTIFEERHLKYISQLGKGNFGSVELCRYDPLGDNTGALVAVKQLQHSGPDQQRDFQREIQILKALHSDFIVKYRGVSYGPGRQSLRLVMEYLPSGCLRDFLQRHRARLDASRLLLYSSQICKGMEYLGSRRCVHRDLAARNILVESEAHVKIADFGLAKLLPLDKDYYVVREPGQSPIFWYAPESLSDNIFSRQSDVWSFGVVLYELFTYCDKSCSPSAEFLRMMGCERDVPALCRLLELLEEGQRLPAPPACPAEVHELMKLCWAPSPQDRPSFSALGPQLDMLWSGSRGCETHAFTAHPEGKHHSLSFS
T1 sequence (P23458 866-1154): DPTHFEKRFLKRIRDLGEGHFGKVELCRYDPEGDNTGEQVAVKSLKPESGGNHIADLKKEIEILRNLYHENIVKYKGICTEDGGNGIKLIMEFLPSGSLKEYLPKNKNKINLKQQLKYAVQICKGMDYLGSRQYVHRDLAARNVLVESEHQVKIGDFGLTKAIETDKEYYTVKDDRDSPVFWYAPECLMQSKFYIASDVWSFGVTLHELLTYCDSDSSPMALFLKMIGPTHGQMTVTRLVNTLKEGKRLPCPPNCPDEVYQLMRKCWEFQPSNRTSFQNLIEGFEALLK

The term IC50 denotes the concentration that inhibits the measured activity by half. Consider `CCc1cc(C2CN(C(=O)OC)C2)ncc1N(C)c1cc2c(cn1)ncn2C` [Compound 339, 3-{4-Ethyl-5-[methyl-(1-methyl-1H-imidazo[4,5-c]pyridin-6-yl)-amino]-pyridin-2-yl}-azetidine-1-carboxylic acid methyl ester], for which the 50% inhibitory concentration (IC50) on human JAK1 is 0.01 to 100 nM; at human JAK2, 101 to 500 nM; at human JAK3 it was greater than 1000 nM; on human TYK2 it was greater than 1000 nM.
Turning to `CCc1cc(C2CN(C(=O)C3CC(F)(F)C3)C2)ncc1N(C)c1cc2c(cn1)ncn2C` [Compound 340], the IC50 at human JAK1 is 101 to 500 nM; at human JAK2, greater than 1000 nM; on human JAK3, greater than 1000 nM; at human TYK2 it was greater than 1000 nM.
On to `CN(c1ccc(/C=C/C#N)cc1)c1cc2c(cn1)ncn2C` [Compound 345, (E)-3-{4-[Methyl-(1-methyl-1H-imidazo[4,5-c]pyridin-6-yl)-amino]-phenyl}-acrylonitrile], for which the IC50 on human JAK1 was 101 to 500 nM; on human JAK2, 501 to 1000 nM; on human JAK3, greater than 1000 nM; on human TYK2, greater than 1000 nM.
In the case of `CCc1cc(C2CN(C(=O)C3(C#N)CC3)C2)ccc1N(C)c1cc2c(cn1)ncn2C` [Compound 348, 1-(3-{3-Ethyl-4-[methyl-(1-methyl-1H-imidazo[4,5-c]pyridin-6-yl)-amino]-phenyl}-azetidine-1-carbonyl)-cyclopropanecarbonitrile], the IC50 on human JAK1 was 101 to 500 nM; at human JAK2, 501 to 1000 nM; at human JAK3, greater than 1000 nM; on human TYK2 it was greater than 1000 nM.
`CN(c1cc2c(cn1)ncn2C)c1ccc(CN(CC#N)S(C)(=O)=O)cc1F` [Compound 355]: the IC50 at human JAK1 fell in the range of 0.01 to 100 nM; at human JAK2 it was 0.01 to 100 nM; on human JAK3 it was 101 to 500 nM; at human TYK2 it was 101 to 500 nM.
In the case of `COCN(Cc1ccc(N(C)c2cc3c(cn2)ncn3C)c(F)c1)S(C)(=O)=O` [Compound 359, N-{3-Fluoro-4-[methyl-(1-methyl-1H-imidazo[4,5-c]pyridin-6-yl)-amino]-benzyl}-N-methoxymethyl-methanesulfonamide], the concentration for half-maximal inhibition (IC50) was 101 to 500 nM at human JAK1, 101 to 500 nM at human JAK2, greater than 1000 nM on human JAK3 and greater than 1000 nM on human TYK2.
For `CN(c1cc2c(cn1)ncn2C)c1ccc(CN(CC2CC2)S(C)(=O)=O)cc1F` [Compound 360], the IC50 is 101 to 500 nM at human JAK1, 101 to 500 nM at human JAK2, greater than 1000 nM at human JAK3 and greater than 1000 nM on human TYK2.
For `CN(c1cc2c(cn1)ncn2C)c1ccc(C2CN(C(=O)N3CCC3)C2)cc1OC(F)F` [Compound 366, Azetidin-1-yl-(3-{3-difluoromethoxy-4-[methyl-(1-methyl-1H-imidazo[4,5-c]pyridin-6-yl)-amino]-phenyl}-azetidin-1-yl)-methanone], the IC50 on human JAK1 was 501 to 1000 nM; at human JAK2, greater than 1000 nM; on human JAK3 it was greater than 1000 nM; on human TYK2, greater than 1000 nM.
Take `CN(c1cc2c(cn1)ncn2C)c1ccc(C2CN(C(=O)N3CCCCC3)C2)cc1OC(F)F` [Compound 367, (3-{3-Difluoromethoxy-4-[methyl-(1-methyl-1H-imidazo[4,5-c]pyridin-6-yl)-amino]-phenyl}-azetidin-1-yl)-piperidin-1-yl-methanone]: the IC50 on human JAK1 is 501 to 1000 nM; at human JAK2, greater than 1000 nM; at human JAK3, greater than 1000 nM; on human TYK2 it was greater than 1000 nM.
For `CN(c1cc2c(cn1)ncn2C)c1ccc(C2CN(C(=O)N3CCOCC3)C2)cc1OC(F)F` [Compound 368], the IC50 at human JAK1 was 501 to 1000 nM; on human JAK2, greater than 1000 nM; on human JAK3 it was greater than 1000 nM; at human TYK2, greater than 1000 nM.
With `CN(c1cc2c(cn1)ncn2C)c1ccc(C2CN(S(=O)(=O)N3CCOCC3)C2)cc1OC(F)F` [Compound 371, {2-Difluoromethoxy-4-[1-(morpholine-4-sulfonyl)-azetidin-3-yl]-phenyl}-methyl-(1-methyl-1H-imidazo[4,5-c]pyridin-6-yl)-amine], the IC50 was 0.01 to 100 nM on human JAK1, 101 to 500 nM on human JAK2, greater than 1000 nM on human JAK3 and greater than 1000 nM at human TYK2.
Regarding `CN(c1cc2c(cn1)ncn2C)c1ccc(C2CN(CC(N)=O)C2)cc1OC(F)F` [Compound 374, 2-(3-{3-Difluoromethoxy-4-[methyl-(1-methyl-1H-imidazo[4,5-c]pyridin-6-yl)-amino]-phenyl}-azetidin-1-yl)-acetamide], the IC50 at human JAK1 was 101 to 500 nM; at human JAK2 it was 101 to 500 nM; at human JAK3, greater than 1000 nM; at human TYK2 it was greater than 1000 nM.
For `CCc1cc(CN2CC(C)(C)C2)ccc1N(C)c1cc2c(cn1)ncn2C` [Compound 382, [4-(3,3-Dimethyl-azetidin-1-ylmethyl)-2-ethyl-phenyl]-methyl-(1-methyl-1H-imidazo[4,5-c]pyridin-6-yl)-amine], the IC50 on human JAK1 was 101 to 500 nM; at human JAK2 it was greater than 1000 nM; on human JAK3, greater than 1000 nM; on human TYK2, greater than 1000 nM.
On to `CCc1cc(CC(=O)N2CC(C)(C)C2)ccc1N(C)c1cc2c(cn1)ncn2C` [Compound 386, 1-(3,3-Dimethyl-azetidin-1-yl)-2-{3-ethyl-4-[methyl-(1-methyl-1H-imidazo[4,5-c]pyridin-6-yl)-amino]-phenyl}-ethanone], for which the IC50 is 101 to 500 nM at human JAK1, greater than 1000 nM on human JAK2, greater than 1000 nM at human JAK3 and greater than 1000 nM on human TYK2.
For the molecule `CCc1cc(N2CC(C(=O)OC)C2)ncc1N(C)c1cc2c(cn1)ncn2C` [Compound 399, 1-{4-Ethyl-5-[methyl-(1-methyl-1H-imidazo[4,5-c]pyridin-6-yl)-amino]-pyridin-2-yl}-azetidine-3-carboxylic acid methyl ester], the IC50 is 0.01 to 100 nM at human JAK1, 101 to 500 nM at human JAK2, greater than 1000 nM on human JAK3 and greater than 1000 nM at human TYK2.
On to `CCc1cc(N2CC(C(=O)NCC#N)C2)ncc1N(C)c1cc2c(cn1)ncn2C` [Compound 401, 1-{4-Ethyl-5-[methyl-(1-methyl-1H-imidazo[4,5-c]pyridin-6-yl)-amino]-pyridin-2-yl}-azetidine-3-carboxylic acid cyanomethyl-amide], for which the IC50 on human JAK1 was 101 to 500 nM; at human JAK2, 501 to 1000 nM; on human JAK3 it was greater than 1000 nM; on human TYK2, greater than 1000 nM.
Turning to `CN(c1cc2c(cn1)ncn2C)c1c(F)cc(C#N)cc1F` [Compound 403, 3,5-Difluoro-4-[methyl-(1-methyl-1H-imidazo[4,5-c]pyridin-6-yl)-amino]-benzonitrile], the IC50 was 501 to 1000 nM on human JAK1, greater than 1000 nM on human JAK2, greater than 1000 nM at human JAK3 and greater than 1000 nM at human TYK2.
For `CN(c1cc2c(cn1)ncn2C)c1c(F)cc(C2CN(C(=O)OC(C)(C)C)C2)cc1F` [Compound 408, 3-{3,5-Difluoro-4-[methyl-(1-methyl-1H-imidazo[4,5-c]pyridin-6-yl)-amino]-phenyl)-azetidine-1-carboxylic acid tert-butyl ester], the 50% inhibitory concentration (IC50) at human JAK1, on human JAK2, on human JAK3 and at human TYK2 was greater than 1000 nM throughout.
On to `CCNC(=O)C1CN(c2cc(CC)c(N(C)c3cc4c(cn3)ncn4C)cn2)C1` [Compound 412, 1-{4-Ethyl-5-[methyl-(1-methyl-1H-imidazo[4,5-c]pyridin-6-yl)-amino]-pyridin-2-yl}-azetidine-3-carboxylic acid ethylamide], for which the IC50 at human JAK1 was 501 to 1000 nM; at human JAK2, 501 to 1000 nM; at human JAK3, greater than 1000 nM; at human TYK2, greater than 1000 nM.
As for `CCc1cc(N2CCCC(C#N)C2)ncc1N(C)c1cc2c(cn1)ncn2C` (stereo not drawn) [Compound 416, 4′-Ethyl-5′-[methyl-(1-methyl-1H-imidazo[4,5-c]pyridin-6-yl)-amino]-3,4,5,6-tetrahydro-2H-[1,2′]bipyridinyl-3-carbonitrile], the half-inhibitory concentration (IC50) was 0.01 to 100 nM at human JAK1, 0.01 to 100 nM at human JAK2, 0.01 to 100 nM on human JAK3 and 101 to 500 nM at human TYK2.
In the case of `CCc1cc(N2CC[C@H](C)C2)ncc1N(C)c1cc2c(cn1)ncn2C` [Compound 417, [4-Ethyl-6-((S)-3-methyl-pyrrolidin-1-yl)-pyridin-3-yl]-methyl-(1-methyl-1H-imidazo[4,5-c]pyridin-6-yl)-amine], the concentration for half-maximal inhibition (IC50) on human JAK1 was in the range of 0.01 to 100 nM; at human JAK2, 0.01 to 100 nM; at human JAK3 it was 101 to 500 nM; on human TYK2, 0.01 to 100 nM.
